Measurements: patent publication US20240150377A1, “MODULATORS OF CYSTIC FIBROSIS TRANSMEMBRANE CONDUCTANCE REGULATOR” (VERTEX PHARMACEUTICALS INCORPORATED, priority 2020, published 2024)
Where two headings read alike, the source gives them in different places. One block for each compound: values may come before it.

What was measured:
[1] = amide bond, 13-membered ring, DMF
CFTR [2] = biological target: CFTR (Homo sapiens, UniProt P13569); experiment: Membrane potential dye, Enteroid Assay A; assay type: cell-based; settings: for Ent. A Max Activity: chloride transport as % of triple combination control (Enteroid Assay A); for EC50: human enteroid cells, 18-24 hours, acute 10 μM forskolin and 300 nM ivacaftor, read-out: Ent. A EC50
Outline: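 Human intestinal enteroids incubated 18-24 h at 37 °C with test compound, then loaded with 20 μM methyl oxonol (with CaCC inhibitors). Chloride transport triggered in chloride-free buffer with 10 μM forskolin, 100 μM IBMX, 300 nM Compound III; fluorescence read 15 min, expressed as % of a triple-combination corrector/potentiator control.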

CFTR [3] = biological target: T1, CFTR (Homo sapiens, UniProt P13569, DEL508-508); experiment: HBE2 assay: Ussing chamber assay of CFTR-mediated short-circuit currents; assay type: cell-based; settings: F508del/MF-HBE cells, with 44 nM potentiator, 18-24 hours, 20% human serum
T1 construct: endogenous in cells; host or cells: primary human bronchial epithelial cells from CF subjects (F508del/MF-HBE), differentiated at air-liquid interface
Outline: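 F508del/MF-HBE cultured >14 days at air-liquid interface, mounted in Ussing chambers; transepithelial short-circuit current recorded under voltage clamp (Vhold=0 mV) at 37 °C. CFTR-mediated ISC (μA/cm^2) taken as peak forskolin response relative to steady-state current after inhibition; corrector activity assessed this way.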

CFTR [4] = biological target: T1, CFTR; experiment: HBE assay: Ussing chamber assay of CFTR-mediated short-circuit currents; assay type: cell-based; settings: HBE assay; 10 μM; read-out: HBE Activity at 10 μM (%)
Outline: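 CFTR-mediated Isc (μA/cm²) equals the peak response to apical 20 μM forskolin minus the residual after a 20 μM each BPO/GlyH-101/CFTR inhibitor 172 cocktail, recorded in Ussing chambers at Vhold 0 mV, 37 °C, pH 7.4, with 30 μM apical amiloride. Cells were F508del/MF HBE cultures preincubated 18-24 h with corrector (concentration range or 10 μM) plus 1 μM ivacaftor in 20% human serum.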

Sequence of CFTR (Homo sapiens, UniProt P13569) (P13569 with tags, fused parts or gaps DEL508-508): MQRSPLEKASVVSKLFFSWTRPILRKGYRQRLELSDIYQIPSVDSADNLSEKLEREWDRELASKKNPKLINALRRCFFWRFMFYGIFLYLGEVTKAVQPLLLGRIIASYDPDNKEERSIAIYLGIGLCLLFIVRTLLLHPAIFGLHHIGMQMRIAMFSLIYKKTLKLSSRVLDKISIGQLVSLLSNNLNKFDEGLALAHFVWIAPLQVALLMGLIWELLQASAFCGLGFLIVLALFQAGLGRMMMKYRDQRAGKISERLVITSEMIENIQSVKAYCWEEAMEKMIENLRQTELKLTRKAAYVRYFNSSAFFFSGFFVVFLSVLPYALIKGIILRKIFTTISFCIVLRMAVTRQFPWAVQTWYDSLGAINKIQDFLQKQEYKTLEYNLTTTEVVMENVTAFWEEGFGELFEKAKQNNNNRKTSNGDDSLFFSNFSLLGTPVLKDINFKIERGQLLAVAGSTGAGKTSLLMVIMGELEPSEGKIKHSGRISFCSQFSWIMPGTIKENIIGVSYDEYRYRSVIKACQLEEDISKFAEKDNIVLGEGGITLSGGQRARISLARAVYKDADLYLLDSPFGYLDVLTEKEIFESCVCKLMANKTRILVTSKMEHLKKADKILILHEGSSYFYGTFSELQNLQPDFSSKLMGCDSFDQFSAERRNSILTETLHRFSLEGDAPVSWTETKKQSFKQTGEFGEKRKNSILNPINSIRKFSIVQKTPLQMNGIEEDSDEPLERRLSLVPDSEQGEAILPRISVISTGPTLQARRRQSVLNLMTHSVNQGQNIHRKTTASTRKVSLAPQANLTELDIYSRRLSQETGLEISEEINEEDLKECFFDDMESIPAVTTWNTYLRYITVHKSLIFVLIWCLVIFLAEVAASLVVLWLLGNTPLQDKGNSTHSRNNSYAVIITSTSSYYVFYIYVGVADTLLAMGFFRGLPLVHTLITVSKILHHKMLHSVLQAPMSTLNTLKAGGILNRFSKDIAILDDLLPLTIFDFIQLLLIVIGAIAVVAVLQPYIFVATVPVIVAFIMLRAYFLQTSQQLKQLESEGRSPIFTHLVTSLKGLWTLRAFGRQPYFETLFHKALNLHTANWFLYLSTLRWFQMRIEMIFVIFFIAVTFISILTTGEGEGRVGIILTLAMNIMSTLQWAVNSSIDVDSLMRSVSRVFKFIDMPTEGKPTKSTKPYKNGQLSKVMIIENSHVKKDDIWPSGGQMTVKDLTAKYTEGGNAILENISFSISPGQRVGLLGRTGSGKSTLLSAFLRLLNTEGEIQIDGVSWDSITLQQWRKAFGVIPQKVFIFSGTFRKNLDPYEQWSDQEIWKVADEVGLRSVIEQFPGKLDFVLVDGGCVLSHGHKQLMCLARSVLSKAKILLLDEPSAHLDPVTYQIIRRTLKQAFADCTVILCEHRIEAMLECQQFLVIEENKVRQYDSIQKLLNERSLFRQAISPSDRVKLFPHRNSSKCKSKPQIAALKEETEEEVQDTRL
T1 sequence (P13569 with tags, fused parts or gaps DEL508-508): as above

Ent. A Max Activity (CFTR [2]; Table 7): ++ (++ is 30-60%)
EC50 (CFTR [2]; Table 7): < 1000 nM
SMILES: Cc1cccc(C)c1-c1cc2nc(n1)NS(=O)(=O)c1cccc(c1)C(=O)N(C)CC(c1cccc(C(C)(C)C)c1)O2 (racemic) [Compound 16, 10-(3-tert-butylphenyl)-6-(2,6-dimethylphenyl)-12-methyl-2,2-dioxo-9-oxa-2λ^6-thia-3,5,12,19-tetrazatricyclo[12.3.1.14,8]nonadeca-1(18),4(19),5,7,14,16-hexaen-13-one]
ring closure, yield after HPLC ([1]; from CNCC(Oc1cc(-c2c(C)cccc2C)nc(NS(=O)(=O)c2cccc(C(=O)O)c2)n1)c1cccc(C(C)(C)C)c1, HATU/DIEA, 32.6 mM, 25.0 °C, 1.0 h, 2 steps): 51%

Ent. A Max Activity (CFTR [2]; Table 6): ++ (++ is 30-60%)
EC50 (CFTR [2]; Table 6): < 1000 nM
SMILES: Cc1cccc(C)c1-c1cc2nc(n1)NS(=O)(=O)c1cccc(c1)C(=O)N(CCC(C)(C)C)CC(c1ccc(C(C)(C)C)cc1)O2 (stereo not shown) [Compound 14, 10-(4-tert-butylphenyl)-12-(3,3-dimethylbutyl)-6-(2,6-dimethylphenyl)-2,2-dioxo-9-oxa-2λ^6-thia-3,5,12,19-tetrazatricyclo[12.3.1.14,8]nonadeca-1(18),4(19),5,7,14,16-hexaen-13-one]
ring closure, yield after HPLC ([1]; from Cc1cccc(C)c1-c1cc(OC(CNCCC(C)(C)C)c2ccc(C(C)(C)C)cc2)nc(NS(=O)(=O)c2cccc(C(=O)O)c2)n1, HATU/TEA, 0.42 h, 2 steps): 6%

Ent. A Max Activity (CFTR [2]; Table 6): +++ (+++ is >60%)
EC50 (CFTR [2]; Table 6): < 1000 nM
SMILES: Cc1cccc(C)c1-c1cc2nc(n1)NS(=O)(=O)c1cccc(c1)C(=O)N(C)CC(c1ccc(C(C)(C)C)cc1)O2 (racemic) [Compound 10, 10-(4-tert-butylphenyl)-6-(2,6-dimethylphenyl)-12-methyl-2,2-dioxo-9-oxa-2λ^6-thia-3,5,12,19-tetrazatricyclo[12.3.1.14,8]nonadeca-1(18),4(19),5,7,14,16-hexaen-13-one]
ring closure, yield after HPLC ([1]; from CNCC(Oc1cc(-c2c(C)cccc2C)nc(NS(=O)(=O)c2cccc(C(=O)O)c2)n1)c1ccc(C(C)(C)C)cc1, HATU/DIEA, 15.4 mM, 25.0 °C, 0.25 h, 2 steps): 19%

HBE2 Activity at 3 μM (%) (CFTR [3]): +++ (+++ is >60+)
EC50 (CFTR [3]): < 1000 nM
Emax (CFTR [3]; read-out: HBE2 Max activity (%)): > 60%
activation at 10 µM (CFTR [4]): > 60%
SMILES: Cc1cccc(C)c1-c1cc2nc(n1)NS(=O)(=O)c1cccc(c1)C(=O)N(Cc1ncc(OC(C)C)cn1)[C@H](CC1(C)CC1)CO2 [Compound 1306, (11R)-6-(2,6-Dimethylphenyl)-12-[(5-isopropoxypyrimidin-2-yl)methyl]-11-[(1-methylcyclopropyl)methyl]-2,2-dioxo-9-oxa-2λ^6-thia-3,5,12,19-tetrazatricyclo[12.3.1.14,8]nonadeca-1(18),4(19),5,7,14,16-hexaen-13-one]
ring closure, yield after HPLC ([1]; from Cc1cccc(C)c1-c1cc(OC[C@@H](CC2(C)CC2)NCc2ncc(OC(C)C)cn2)nc(NS(=O)(=O)c2cccc(C(=O)O)c2)n1, CDMT/NMM, 33.8 mM, 4.0 h): 53%

Ent. A Max Activity (CFTR [2]; Table 6): +++ (+++ is >60%)
EC50 (CFTR [2]; Table 6): < 1000 nM
SMILES: Cc1cccc(C)c1-c1cc2nc(n1)NS(=O)(=O)c1cccc(c1)C(=O)N(C)CC(c1ccc(C(C)(C)C)cn1)O2 (stereo not shown) [Compound 101, 10-(5-tert-butyl-2-pyridyl)-6-(2,6-dimethylphenyl)-12-methyl-2,2-dioxo-9-oxa-2λ^6-thia-3,5,12,19-tetrazatricyclo[12.3.1.14,8]nonadeca-1(18),4(19),5,7,14,16-hexaen-13-one]
ring closure, yield after HPLC ([1]; from CNCC(Oc1cc(-c2c(C)cccc2C)nc(NS(=O)(=O)c2cccc(C(=O)O)c2)n1)c1ccc(C(C)(C)C)cn1, HATU/DIEA, 10.5 mM, 25.0 °C, 0.083 h, 2 steps): 55%

HBE2 Activity at 3 μM (%) (CFTR [3]): +++ (+++ is >60+)
activation at 10 µM (CFTR [4]): > 60%
SMILES: Cc1cccc(C)c1-c1cc2nc(n1)NS(=O)(=O)c1cccc(c1)C(=O)N(Cc1ncc(N3CC(C)(C)C3)cn1)[C@H](CC1(C)CC1)CO2 [Compound 1307, (11R)-12-[[5-(3,3-Dimethylazetidin-1-yl)pyrimidin-2-yl]methyl]-6-(2,6-dimethylphenyl)-11-[(1-methylcyclopropyl)methyl]-2,2-dioxo-9-oxa-2λ^6-thia-3,5,12,19-tetrazatricyclo[12.3.1.14,8]nonadeca-1(18),4(19),5,7,14,16-hexaen-13-one]
ring closure, yield after HPLC ([1]; from Cc1cccc(C)c1-c1cc(OC[C@@H](CC2(C)CC2)NCc2ncc(N3CC(C)(C)C3)cn2)nc(NS(=O)(=O)c2cccc(C(=O)O)c2)n1, CDMT/NMM, 24.2 mM, 3.0 h): 65%

HBE2 Activity at 3 μM (%) (CFTR [3]): +++ (+++ is >60+)
SMILES: Cc1cccc(C)c1-c1cc2nc(n1)NS(=O)(=O)c1cccc(c1)C(=O)N(Cc1ncc(OC(C)C)cn1)[C@H](CC1(C)CCC1)CO2 [Compound 1317, (11R)-6-(2,6-Dimethylphenyl)-12-[(5-isopropoxypyrimidin-2-yl)methyl]-11-[(1-methylcyclobutyl)methyl]-2,2-dioxo-9-oxa-2λ6-thia-3,5,12,19-tetrazatricyclo[12.3.1.14,8]nonadeca-1(18),4(19),5,7,14,16-hexaen-13-one]
ring closure, yield after HPLC ([1]; from Cc1cccc(C)c1-c1cc(OC[C@@H](CC2(C)CCC2)NCc2ncc(OC(C)C)cn2)nc(NS(=O)(=O)c2cccc(C(=O)O)c2)n1, CDMT/NMM, 12.9 mM, 22.0 h): 64%
